Assay results published in patent US20110105436A1, “HETEROARYL COMPOUNDS, COMPOSITIONS, AND METHODS OF USE IN CANCER TREATMENT” (AUCKLAND UNISERVICES LIMITED, priority 2008, published 2011).

Assays:
[1] = tested on: SN12C and SN12C+shVHL tumor samples; assay: Ki67 immunostaining of tumor samples; type: in vivo, mice; conditions: RCC deficient in VHL or with wild-type VHL, FIG. 7H
Procedure: B. XTT assay in RCC4 and RCC4/VHL in presence of STF-62247 (0-40 μM). Each point of the cell survival is calculated by the average of three different experiments in duplicate as the percent of treated on untreated plate. The error bars are represented as the standard error of the mean (SEM) C. qRT-PCR for Glutl, VEGF, PDF and PGK in RCC4 cells with or without HIF-1a, HIF-2a shRNA and in RCC4/VHL. D. Hoescht staining in RCC4 and RCC4/VHL cells with 1.25 μM of STF-62247 for 2 days. Camptothecin was used as positive control E. FACS analysis for apoptosis after an annexin V-FITC staining in presence or absence of propidium iodine (PI) in cells after a treatment in same conditions than in C. F. Immunoblot for active caspase-3 in RCC4 and RCC4/VHL following treatment with 1.25 μM of STF-62247 for 24 hours. Staurosporine was used as positive control (0.2 μM for 24 hours). G,H. Immunostaining of caspase-3 and Ki67 respectively in SN12C and SN12C+shVHL tumor samples untreated or treated with 30 μM of STF-62247.1. Immunoblot for p53 and SerlS phospho-p53 in RCC4 and RCC4/VHL cells after a treatment with 1.25 μM of STF-62247 or doxorubicin for 24 hours.

yeast deletion strains = assay: Killing curves of yeast deletion strains; type: cell-based, S. cerevisiae
Source text: Screen in yeast and killing curves. Genotypes of the parental yeast strain BY4743, construction of the homozygous diploid deletion strains, and construction of the homozygous diploid deletion pool have been described previously (Thomas, G. V., et al., Nat. Med. 2006, 12, 122). A mutant pool of 4728 nonessential homozygous diploid deletion strains was used. The parental diploid strain BY4743 was used as control in survival and complementation assays. […]
A. Killing curves for 8 deletion yeast strains. Wild-type, ALG5, APS1, CLA4, DRS2, OSH3, VPS20, VPS25, YPT31 were incubated with STF-62247 (0-100 μM) for 1 hour and colony formation was evaluated after two days. Each point of the survival is calculated by the average of two different experiments in triplicate and as the percent of treated on untreated plate. B. Quantitative real time PCR for CHMP6, PAK2, RAB11a, OSBP3 and ALG5 in RCC4 and RCC4/VHL. Histogram is calculated by the average of three different experiments in triplicate as the percent of RCC4/VHL on RCC4 cells. […] Colony formation was evaluated as described before. *p<0.05 represents the difference between VHL cells and VHL with siRNA in presence of 5 μM of STF-62247.

[2] = tested on: RCC4, RCC4/VHL, SN12C and SN12C-VHL shRNA cells; assay: Acidic vesicle organelles with acridine orange (FACS); type: cell-based; conditions: 1.25 μM, VHL-deficient versus wild-type VHL cells
Procedure: Quantification of Acidic Vesicle Organelles with Acridine Orange. In acridine orange-stained cells, the cytoplasm and nucleus are bright green and dim red, whereas acidic compartments are bright red. The intensity of the red fluorescence is proportional to the degree of acidity. Following 20 hours of treatment with STF-62247 or analogs, cells were stained with 1 μg/ml of acridine orange for 15 min. Cells were trypsinized and then analyzed by flow cytometry using FACScan cytometer and CellQuest software.
A. VHL-deficient RCC4 and wild-type VHL were incubated in presence of 10 μM LY294002, or 1 μg/mlBrefeldin A with 1.25 μM of STF-62247 for 20 hrs and the presence of vacuoles was examined under light microscopy. B,C. LC3 processing was evaluated by Western blot after the treatment with Brefeldin A or LY294002 in presence or absence of STF-62247 as described above. Tubulin was used as loading control. D. Cells were treated with 1.25 μM of STF-62247 with or without 2 mM of 3-MA, 1 μg/ml of Brefeldin A for 20 hrs. For the last 15 min, acidic components were stained with 1 μg/ml of acridine orange and visualized under fluorescence microscope. […] F. Quantification of the FACS analysis. The data are calculated as the average of three different experiments as relative units of treated over untreated cells. The error bars are represented as the standard error of the mean (SEM).
A. RCC4 and RCC4/VHL were treated with 1.25 μM of each 19 analogs for 20 hours and the presence of vacuoles was examined under light microscopy. B. Western blot for LC3 after treatment with each compound. Tubulin was used as loading control. Ratio is the relative from the IC50 in RCC4/VHL cells/IC50 in RCC4 cells. C. Acidic vesicle organelles (AVO) measured by FACS analysis in cells treated with 1.25 μM of STF-62247 or with compounds 21, 15, 25, 47, and 53 and stained with acridine orange.

Question: Which “proliferation by Ki67 staining” value [1] does the source give for `Cc1cccc(Nc2nc(-c3ccncc3)cs2)c1` [Compound 5, N-(3-Methylphenyl)-4-(4-pyridinyl)-1,3-thiazol-2-amine] here?
Answer: no difference in proliferation

Question: What about the “sensitivity of yeast deletion strain” value (yeast deletion strains; ATG8 deletion strain, data not shown) of the same compound?
Answer: did not exhibit sensitivity to STF-62247

Question: And the “toxicity in yeast deletion strains” value (yeast deletion strains; CLA4, VPS20, ALG5, OSH3 and YPT31 deletion strains, 0-100 μM, 1 h)?
Answer: significant toxicity in response to STF-62247

Question: What about the “acridine orange staining / amount of AVOs” value [2] of the same compound?
Answer: significantly increased in VHL-deficient RCC4 cells compared to their wild-type VHL counterparts
